In publication PMC6328587 (Nature Communications, 2019):
Read-outs that look alike come from different tables or passages of the source.

Tests used:
[1] = biological target: T1, p38α (Homo sapiens, UniProt Q16539); assay: PROTAC-induced p38α degradation, western blot in MDA-MB-231 cells; format: cell-based
T1 construct: SJFα PROTAC (13-atom linker, amide attachment) selectively degrades p38α; endogenous in cells; host or cells: MDA-MB-231
Experimental: (§1) MDA-MB-231 and HeLa cells were obtained from the American Type Culture Collection (ATCC), cultured in RPMI-1640 medium (1 × ) and Dulbecco’s modified Eagle’s medium (DMEM; 1 × ), respectively, containing 10% fetal bovine serum and 1% penicillin–streptomycin and grown in a humidified incubator at 37 °C and 5% CO2.
(§2) […] once with ice-cold PBS (1 × ), followed by lysis in buffer containing 25 mM Tris [pH 7.5], 0.25% sodium deoxycholate, 1% Triton X-100, supplemented with 1X protease inhibitor cocktail (Roche), and phosphatase inhibitors (10 mM NaF, 1 mM Na3VO4, and 20 mM β-glycerophosphate), unless otherwise noted. Lysates were spun at 14,000 × g for 10 min at 4 °C and supernatant was evaluated for protein content using a Pierce BCA Protein Assay (ThermoFisher Scientific). In all experiments, 25–50 μg of protein was loaded onto 10% SDS-PAGE gels or 4–20% Criterion TGX precast gradient gels (Bio-Rad), transferred to nitrocellulose membranes, and probed with the specified antibodies overnight at 4 °C in 1X TBS-Tween (Tris-buffered saline plus 0.02% Tween 20) containing 5% non-fat milk. Immunoblots were visualized using a Bio-Rad ChemiDoc imaging instrument and subsequently processed and quantified using the accompanying Bio-Rad ImageLab software. See Supplementary Figure 8 for uncropped scans of western blots shown in the main text figures.
(§3) Western blot data in Figs. 2, 6, and Supplementary Figures 2, 3 were quantified by using the band feature in Image Lab (Bio-Rad). The p38 values were normalized to the α-tubulin signal to account for differences in protein load, and PROTAC-treated normalized values were expressed as a % of the vehicle-treated (no PROTAC) value, which itself was defined as 100% p38 protein level. […] The sigmoidal fit established both the full extent of degradation, or Dmax at the bottom asymptote of the curve, as well as the DC50, which is the inflection point at which 50% of the total degradation observed was reached.

[2] = biological target: T2, p38β (Homo sapiens, UniProt Q15759); assay: p38β degradation, western blot in MDA-MB-231 cells; format: cell-based; details: concentrations up to 2.5 µM
T2 construct: endogenous in cells; host or cells: MDA-MB-231
T2 sequence (Q15759 whole entry): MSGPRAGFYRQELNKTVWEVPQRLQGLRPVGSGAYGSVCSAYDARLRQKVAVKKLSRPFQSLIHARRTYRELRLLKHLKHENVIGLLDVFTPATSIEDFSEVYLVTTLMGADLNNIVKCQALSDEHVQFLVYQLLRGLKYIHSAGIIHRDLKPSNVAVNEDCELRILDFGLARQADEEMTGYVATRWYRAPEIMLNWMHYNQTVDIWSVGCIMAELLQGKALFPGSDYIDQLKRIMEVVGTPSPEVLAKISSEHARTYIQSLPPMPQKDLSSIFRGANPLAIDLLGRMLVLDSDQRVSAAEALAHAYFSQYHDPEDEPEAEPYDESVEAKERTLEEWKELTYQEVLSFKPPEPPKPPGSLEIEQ
Experimental: as §2
Supplementary Figure 4 cont.
Supplementary Figure 4. Characterization of M APK fam ily degradation selectivity (related to Figures 1-2). (a) p38 M APK fam ily m em bers (α, β, δ, γ) were aligned using the T-Coffee multiple sequence alignm ent server. […] Note: JNK1 and JNK2 are expressed as two alternatively-spliced form s. […]

[3] = biological target: T3, p38δ:PROTAC:VHL ternary complex (Homo sapiens, UniProt O15264+P40337); assay: In vitro ternary complex pull-down, GST-VBC bait, purified p38δ; format: binding; details: dose-dependent
T3 construct: encoding a region spanning amino acids 1–365; His6 (N); made in house; host or cells: E. coli BL21-CodonPlus(DE3)-RIPL (p38δ); E. coli BL21(DE3) (GST-VBC)
T3 sequence (P40337 whole entry, one chain of several, the tested form may be a part): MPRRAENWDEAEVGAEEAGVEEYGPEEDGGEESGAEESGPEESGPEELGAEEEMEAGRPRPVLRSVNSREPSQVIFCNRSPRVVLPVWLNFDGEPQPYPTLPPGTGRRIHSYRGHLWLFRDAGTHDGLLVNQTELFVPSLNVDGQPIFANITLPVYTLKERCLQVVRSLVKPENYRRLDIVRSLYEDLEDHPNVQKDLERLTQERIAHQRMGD
T3 sequence (Q15370 whole entry partner, one chain of several, the tested form may be a part): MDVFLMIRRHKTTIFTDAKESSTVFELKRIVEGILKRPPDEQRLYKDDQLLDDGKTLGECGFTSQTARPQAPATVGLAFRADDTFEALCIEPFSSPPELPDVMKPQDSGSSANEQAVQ
T3 sequence (Q15369 whole entry partner, one chain of several, the tested form may be a part): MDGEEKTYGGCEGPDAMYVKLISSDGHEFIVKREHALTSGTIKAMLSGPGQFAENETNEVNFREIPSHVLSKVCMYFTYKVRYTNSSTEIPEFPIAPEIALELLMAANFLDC
Experimental: Glutathione Sepharose 4B (Glutathione-conjugated beads in a slurry containing 20% ethanol) were washed twice with 1X wash buffer (50 mM HEPES pH 7.5, 150 mM NaCl, 1 mM DTT, 0.01% NP40, 5 mM MgCl2, 10% Glycerol) and then blocked for 1 h at room temperature with 10% bovine serum albumin (BSA) in wash buffer. The beads were then washed again three times with wash buffer and then purified GST-VBC (stable form of VHL complexed with EloB/EloC, described above) was immobilized for 1 h at 4 °C at 3.6 pmole µL^–1 of beads. The beads were then washed three times with wash buffer, resuspended, divided into two equal volumes, and p38α or p38δ protein was added. The bead:p38 mixture was then aliquoted to separate tubes and PROTAC was added at the indicated concentration (PROTACs were intermediately diluted in 10% DMSO and 0.25% CHAPS). This mixture was incubated at 4 °C for 2 h. The beads were washed three times with 10 column volumes of wash buffer and then eluted with SDS loading buffer at 75 °C for 10 min.

[4] = biological target: T4, wild-type p38δ (Homo sapiens, UniProt O15264); assay: Degradation of transfected wild-type p38δ in HeLa cells; format: cell-based; details: 24 h
T4 construct: expressed in transfected cells; host or cells: HeLa
T4 sequence (O15264 1-365): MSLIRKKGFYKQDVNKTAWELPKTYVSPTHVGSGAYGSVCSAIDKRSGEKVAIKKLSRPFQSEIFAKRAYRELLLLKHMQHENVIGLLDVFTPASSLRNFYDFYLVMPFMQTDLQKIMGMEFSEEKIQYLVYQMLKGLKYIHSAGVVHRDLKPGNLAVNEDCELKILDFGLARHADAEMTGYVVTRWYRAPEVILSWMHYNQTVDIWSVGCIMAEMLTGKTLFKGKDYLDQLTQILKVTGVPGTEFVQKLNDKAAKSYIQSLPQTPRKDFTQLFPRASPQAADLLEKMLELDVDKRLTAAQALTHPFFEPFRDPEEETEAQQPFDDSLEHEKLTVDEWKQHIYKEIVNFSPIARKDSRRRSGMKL
Experimental: Mutant p38δ was generated by QuikChange Lightning site-directed mutagenesis kit (Agilent). Transfections were carried out using Lipofectamine 2000 reagent (Invitrogen) in HeLa cells seeded at 3 × 10^5 cells per six well. One microgram of FLAG-containing pcDNA5-p38delta-WT or pcDNA5-p38delta-K220ET221E was used per transfection. Opti-MEM media were changed after 6 h to DMEM (1 × ), at which point the indicated compounds were added for 24 h before harvesting.

[5] = biological target: T5, p38δ (Homo sapiens, UniProt O15264); assay: PROTAC-induced p38δ degradation, western blot in MDA-MB-231 cells; format: cell-based
T5 construct: endogenous in cells; host or cells: MDA-MB-231
T5 sequence (O15264 1-365): T4 sequence (O15264 1-365)
Experimental: as §1, §2, §3

[6] = 0.025-5.0 µM survey, biological duplicates, ± one s.d., Supplementary Table 1
[7] = 0.025-5.0 µM survey, ± one s.d., Supplementary Table 1, read-out: Dmax p38α (maximum percentage of degradation)
[8] = wider dose response 1 nM-100 µM, Supplementary Figure 3
[9] = 0.025-5.0 µM survey, ± one s.d., Supplementary Table 1, read-out: Dmax p38δ (maximum percentage of degradation)
[10] = wider dose response 1 nM-100 µM, Supplementary Figure 3, read-out: Dmax p38δ

T1 sequence (Q16539 whole entry): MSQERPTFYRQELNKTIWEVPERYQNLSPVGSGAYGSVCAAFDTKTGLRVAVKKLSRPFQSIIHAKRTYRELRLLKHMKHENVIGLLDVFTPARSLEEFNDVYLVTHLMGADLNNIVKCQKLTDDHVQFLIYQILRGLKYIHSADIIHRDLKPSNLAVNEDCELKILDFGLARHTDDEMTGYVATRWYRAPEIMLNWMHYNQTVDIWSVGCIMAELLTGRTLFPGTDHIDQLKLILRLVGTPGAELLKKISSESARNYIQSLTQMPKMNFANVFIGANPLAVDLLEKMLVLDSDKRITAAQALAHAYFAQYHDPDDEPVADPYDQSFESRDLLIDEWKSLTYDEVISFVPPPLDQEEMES

p38α downregulation after pre-treatment with 1 µM epoxomicin or 1 µM MLN4924 ([1]; 250 nM PROTAC, 6 h) | DC50 [1, 6] | Dmax [1, 7] | hook effect in p38α degradation ([1]; up to 100 µM) | DC50 [1, 8] | Dmax ([1]; wider dose response 1 nM-100 µM, Supplementary Figure 3, read-out: Dmax p38α) | p38β degradation [2] | pull-down of purified p38δ on GST-VBC-coated beads [3] | degradation of wild-type p38δ [4] | DC50 [5, 6] | Dmax [5, 9] | Dmax [5, 10] | p38α degradation (in words) [1] | p38δ downregulation after pre-treatment with 1 µM epoxomicin or 1 µM MLN4924 ([5]; 250 nM PROTAC, 6 h) | hook effect in p38δ degradation ([5]; up to 100 µM) | DC50 [5, 8] | SMILES
completely rescued | 9.5 ± 1 nM | 99.6 ± 1.1% | no hook effect | 7.16 ± 1.03 nM | 97.4% | does not degrade | can pull-down purified p38δ | not wild-type p38δ | 1160 ± 2470 nM | 25.1 ± 22.7% | 18% |  |  |  |  | COc1cc2c(Oc3ccc(NC(=O)C4(C(=O)Nc5ccc(F)cc5)CC4)cc3F)ccnc2cc1OCCCCOCCCCOCC(=O)N[C@H](C(=O)N1C[C@H](O)C[C@H]1C(=O)NCc1ccc(-c2scnc2C)cc1)C(C)(C)C [SJFα]
 | 45.9 ± 81.3 nM | 34.5 ± 10.1% |  |  |  | does not degrade | can pull-down purified p38δ | able to eliminate wild-type p38δ | 79.2 ± 28 nM | 98.4 ± 6.6% | 99.4 ± 3.31% | does not degrade | completely rescued | no hook effect | 46.2 ± 9.85 nM | COc1cc2c(Oc3ccc(NC(=O)C4(C(=O)Nc5ccc(F)cc5)CC4)cc3F)ccnc2cc1OCCOCCOCCOc1cc(-c2scnc2C)ccc1CNC(=O)[C@@H]1C[C@@H](O)CN1C(=O)[C@H](C(C)C)N1Cc2ccccc2C1=O [SJFδ]
